Each structure is given as a SMILES string.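 Compound exposure: 48 hours, 5 concentrations, 96-well plates. Abbreviation: GI50, concentration required for 50% inhibition of growth.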 Active and inactive are the calls of the source. No stated cut-off is given here; in the data, active = GI50 up to about 1.1 µM and inactive = higher.

Holding throughout (assay): inhibition of tumour cell growth, NCI panel, 48 h
The test system of assay [1] is ACHN.
Assay [2] relates to COLO 205.
The subject of assay [3] is HCT-15.
Assay [4] has as its system HT-29.
For assay [5], the system named is IGROV-1.
Assay [6] deals with MDA-MB-231.
The subject of assay [7] is Malme-3M.
For assay [8], the system named is NCI/ADR-RES.
Assay [9] relates to OVCAR-3.
For assay [10], the system named is OVCAR-5.
Assay [11] deals with OVCAR-8.
Assay [12] concerns SF-268.
Assay [13] deals with SF-539.
Assay [14] has as its system SK-MEL-5.
In assay [15] the test system is SN12C.
The subject of assay [16] is SNB-19.
In assay [17] the test system is SR.
Assay [18] has as its system TK-10.
The test system of assay [19] is U-251.
Assay [20] relates to UO-31.

For the molecule `CC(C)C(/N=C/c1ccccc1O)C(=O)O` (stereo not given), the GI50 in [1] was > 100 µM (inactive); in assay [2], > 100 µM (inactive); in [3], greater than 100 µM; in assay [4] it was > 100 µM (inactive); in assay [5], > 100 µM (inactive); in [6], 87.9 µM (inactive). Further, the GI50 is 55.3 µM (inactive) in [7]; > 100 µM (inactive) in assay [8]; > 100 µM (inactive) in [9]; > 100 µM (inactive) in assay [10]; > 100 µM (inactive) in assay [11]; > 100 µM (inactive) in [12]. In addition, the GI50 in assay [13], in [14], in assay [15], in [16], in [17] and in [18] was > 100 µM (inactive) each time. Besides, the GI50 in assay [19] and in assay [20] was > 100 µM (inactive) throughout.
With `COC(=O)[C@H](C)[C@@H]1CC[C@](C)(CCC2=C(C)CCCC2(C)C)OO1`, the GI50 in [1] is > 25 µM (inactive); in assay [2], > 25 µM (inactive); in assay [3] it was greater than 25 µM; in assay [4] it was > 25 µM (inactive); in [5] it was > 25 µM (inactive); in assay [6], > 25 µM (inactive). In addition, the GI50 in assay [7], in assay [8], in [9], in assay [10], in [11] and in assay [12] was > 25 µM (inactive) in each case. The GI50 in assay [13], in assay [14], in assay [15], in [16], in assay [17] and in assay [18] was > 25 µM (inactive) in each case. The values for the GI50 in assay [19] and in [20] were > 25 µM (inactive) and 23.7 µM (inactive), respectively.
Regarding `CN1CC2=C(N=C(S)NC2c2ccc(Cl)cc2)/C(=C/c2ccc(Cl)cc2)C1` (stereo not given), the GI50 in assay [1] is 23 µM (inactive); in [2], 17.4 µM (inactive); in assay [3], 13.8 µM; in assay [4], 16.2 µM (inactive); in assay [5], 16.1 µM (inactive); in [6] it was 20.8 µM (inactive). Further, the GI50 was 14.5 µM (inactive) in assay [7]; 17.2 µM (inactive) in assay [8]; 15.3 µM (inactive) in assay [9]; 15.8 µM (inactive) in assay [10]; 17.5 µM (inactive) in assay [11]; 23.9 µM (inactive) in assay [12]. Also, the GI50 in assay [13] is 25.9 µM (inactive); in assay [14] it was 13.3 µM (inactive); in [15], 17.2 µM (inactive); in assay [16], > 10 µM (inactive); in assay [17] it was 15.6 µM (inactive); in [18], 22.6 µM (inactive). Besides, the GI50 is 17.2 µM (inactive) in [19] and 25.8 µM (inactive) in [20].
Take `Cn1c2ccccc2n2c3nc4ccccc4nc3c(C#N)c12`: the GI50 in assay [1] is 75.3 µM (inactive); in assay [2] it was 70 µM (inactive); in [3], 9.29 µM; in [4], 14.3 µM (inactive); in assay [5] it was > 100 µM (inactive); in assay [6] it was > 97.1 µM (inactive). In addition, the GI50 was > 81.8 µM (inactive) in assay [7]; > 100 µM (inactive) in assay [8]; > 100 µM (inactive) in assay [9]; 10 µM (inactive) in assay [10]; 74.1 µM (inactive) in assay [11]; 81.3 µM (inactive) in [12]. The GI50 was 62.8 µM (inactive) in assay [13]; 4.4 µM (inactive) in assay [14]; > 94.2 µM (inactive) in [15]; > 100 µM (inactive) in assay [16]; 49.3 µM (inactive) in assay [17]; > 10 µM (inactive) in assay [18]. For the same molecule, the figures for the GI50 in assay [19] and in assay [20] were 74 µM (inactive) and 77.3 µM (inactive), respectively.
As to `CC12Cc3cc4c(cc3C1(c1ccc([N+](=O)[O-])cc1)OCCO2)OCO4` (stereo not given), the GI50 was 28 µM (inactive) in assay [1]; > 100 µM (inactive) in assay [2]; 44.2 µM in [3]; > 100 µM (inactive) in [4]; 23.1 µM (inactive) in [5]; 14.9 µM (inactive) in assay [6]. The GI50 was > 100 µM (inactive) in assay [7]; 95.5 µM (inactive) in [8]; > 100 µM (inactive) in [9]; > 100 µM (inactive) in assay [10]; 22.4 µM (inactive) in assay [11]; 22.8 µM (inactive) in assay [12]. The GI50 is 28 µM (inactive) in [13]; > 100 µM (inactive) in assay [14]; 55.6 µM (inactive) in assay [15]; 28.6 µM (inactive) in assay [16]; > 100 µM (inactive) in assay [17]; 37.8 µM (inactive) in assay [18]. For the same molecule, the GI50 is 26.9 µM (inactive) in assay [19] and > 100 µM (inactive) in [20].
For the molecule `CC(C)(C)OC(=O)N(O)CCCn1cnc2c(NC3CC3)ncnc21`, the GI50 was > 100 µM (inactive) in [1]; > 100 µM (inactive) in [2]; greater than 100 µM in [3]; > 100 µM (inactive) in [4]; 75.3 µM (inactive) in assay [5]; > 100 µM (inactive) in assay [6]. The GI50 in assay [7], in assay [8], in assay [9], in assay [10], in [11] and in assay [12] was > 100 µM (inactive) throughout. Also, the GI50 in [13], in [14], in assay [15], in assay [16], in assay [17] and in assay [18] was > 100 µM (inactive) throughout. Besides, the GI50 in [19] and in assay [20] was > 100 µM (inactive) each time.
As for `COc1cc(/C=C/C(=O)CC(=O)/C=C/c2cc(OC)c(O)c(OC)c2)cc(OC)c1O`, the GI50 in [1] was 9.31 µM (inactive); in [2] it was 10.1 µM (inactive); in assay [3], greater than 25 µM; in assay [4], 7.76 µM (inactive); in assay [5], 5.35 µM (inactive); in assay [6], 13.8 µM (inactive). In addition, the GI50 was 9.16 µM (inactive) in assay [7]; > 25 µM (inactive) in assay [8]; 6.85 µM (inactive) in assay [9]; 10.3 µM (inactive) in [10]; 10.4 µM (inactive) in assay [11]; 5.37 µM (inactive) in [12]. The GI50 in assay [13] is 8.77 µM (inactive); in assay [14], 8.63 µM (inactive); in assay [15] it was 6.68 µM (inactive); in assay [16], 7.74 µM (inactive); in assay [17] it was 5.53 µM (inactive); in [18], 20.2 µM (inactive). Further, the GI50 in [19] was 8.11 µM (inactive); in assay [20] it was > 25 µM (inactive).

The values above are taken from ChEMBL document CHEMBL1201862, “PubChem BioAssay data set” (2004).
